Measurements published in the NIST ThermoML archive (doi:10.1021/je301164d).

Conditions: Fluid (supercritical or subcritical phases)

FC(C(F)(F)F)C(F)(F)F [1,1,1,2,3,3,3-heptafluoropropane]
Conditions	speed of sound [m/s]
280 K, 603.72 kPa	494.1
280 K, 1104.4 kPa	498.92
280 K, 1604.7 kPa	503.64
280 K, 2105 kPa	508.26
280 K, 3105.8 kPa	517.26
280 K, 4106.2 kPa	525.95
280 K, 5107.1 kPa	534.35
280 K, 6107.9 kPa	542.49
280 K, 7109.3 kPa	550.4
280 K, 8110 kPa	558.07
280 K, 9110.7 kPa	565.55
280 K, 10111 kPa	572.83
280 K, 12613 kPa	590.29
280 K, 15115 kPa	606.8
280 K, 17616 kPa	622.5
280 K, 20118 kPa	637.48
280 K, 35129 kPa	716.11
280 K, 40132 kPa	739.1
280 K, 45136 kPa	760.88
280 K, 50139 kPa	781.61
280.01 K, 25122 kPa	665.6
280.01 K, 30125 kPa	691.69
299.99 K, 1103 kPa	417.61
299.99 K, 1603.4 kPa	423.61
299.99 K, 2103.8 kPa	429.45
300 K, 3106.4 kPa	440.66
300 K, 4107.2 kPa	451.3
300 K, 5107.9 kPa	461.45
300 K, 6108.6 kPa	471.17
300 K, 7109.4 kPa	480.51
300 K, 8110.1 kPa	489.5
300 K, 9110.1 kPa	498.18
300 K, 10111 kPa	506.58
300 K, 12612 kPa	526.5
300 K, 15114 kPa	545.09
300 K, 17616 kPa	562.57
300 K, 20118 kPa	579.11
300 K, 25122 kPa	609.85
300 K, 30126 kPa	638.04
300 K, 35129 kPa	664.19
300 K, 40132 kPa	688.66
300 K, 45136 kPa	711.71
300 K, 50139 kPa	733.55
320 K, 1104.2 kPa	332.96
320 K, 2104.9 kPa	349.11
320 K, 3105.5 kPa	363.82
320 K, 4105.6 kPa	377.39
320 K, 5106.4 kPa	390.04
320 K, 6107.1 kPa	401.94
320 K, 7107.7 kPa	413.18
320 K, 8108.4 kPa	423.87
320 K, 9109 kPa	434.06
320 K, 10110 kPa	443.83
320 K, 12612 kPa	466.66
320 K, 15113 kPa	487.61
320 K, 17615 kPa	507.06
320 K, 20117 kPa	525.27
320 K, 25120 kPa	558.72
320 K, 30124 kPa	589.03
320 K, 35128 kPa	616.9
320 K, 40131 kPa	642.8
320 K, 45135 kPa	667.06
320.01 K, 50138 kPa	689.95
340 K, 1603.1 kPa	249.98
340 K, 2103.4 kPa	262.38
340 K, 3104.1 kPa	283.96
340 K, 4104.8 kPa	302.59
340 K, 5105.4 kPa	319.17
340 K, 6106 kPa	334.23
340 K, 7106.7 kPa	348.1
340 K, 8108.1 kPa	361.03
340 K, 9108.9 kPa	373.15
340 K, 10110 kPa	384.6
340 K, 12612 kPa	410.84
340 K, 15113 kPa	434.43
340 K, 17615 kPa	456
340 K, 20117 kPa	475.96
340 K, 25120 kPa	512.15
340 K, 30124 kPa	544.54
340 K, 35127 kPa	574.06
340 K, 40130 kPa	601.3
340 K, 45134 kPa	626.7
340 K, 50138 kPa	650.55
360 K, 3604.3 kPa	209.76
360 K, 4104.8 kPa	223.69
360 K, 5105.6 kPa	247.37
360 K, 6106.5 kPa	267.43
360 K, 7107.4 kPa	285.07
360.01 K, 8109.2 kPa	300.98
360.01 K, 9110 kPa	315.53
360.01 K, 10111 kPa	329.01
360.01 K, 12612 kPa	359.17
360.01 K, 15114 kPa	385.62
360.01 K, 17616 kPa	409.39
360.01 K, 20118 kPa	431.12
360.01 K, 25122 kPa	470
360.01 K, 30125 kPa	504.36
360.01 K, 35129 kPa	535.41
360.01 K, 40132 kPa	563.88
360.01 K, 45135 kPa	590.29
360.01 K, 50139 kPa	615
380 K, 7107.3 kPa	224.9
380 K, 8108.1 kPa	244.61
380 K, 9108.9 kPa	262.08
380 K, 10110 kPa	277.88
380 K, 11110 kPa	292.38
380 K, 12111 kPa	305.84
380 K, 13112 kPa	318.45
380 K, 14112 kPa	330.32
380 K, 15113 kPa	341.58
380 K, 17615 kPa	367.5
380 K, 20117 kPa	390.9
380 K, 22618 kPa	412.36
380 K, 25120 kPa	432.25
380 K, 30123 kPa	468.39
380 K, 35127 kPa	500.79
380 K, 40130 kPa	530.34
380 K, 45134 kPa	557.64
380 K, 50137 kPa	583.09
400 K, 10108 kPa	232.81
400 K, 11109 kPa	249.04
400 K, 12109 kPa	263.93
400 K, 13110 kPa	277.75
400 K, 14111 kPa	290.67
400 K, 15112 kPa	302.83
400 K, 16112 kPa	314.36
400 K, 17113 kPa	325.31
400 K, 18114 kPa	335.78
400 K, 19115 kPa	345.8
400 K, 20116 kPa	355.43
400 K, 22618 kPa	378.04
400 K, 25119 kPa	398.88
400 K, 27621 kPa	418.29
400 K, 30123 kPa	436.5
400 K, 35126 kPa	470.02
400 K, 40130 kPa	500.46
400 K, 45133 kPa	528.48
400 K, 50137 kPa	554.55
420 K, 12108 kPa	229.23
420 K, 13109 kPa	243.75
420 K, 14110 kPa	257.31
420 K, 15111 kPa	270.06
420 K, 16111 kPa	282.11
420 K, 17112 kPa	293.55
420 K, 18113 kPa	304.45
420 K, 19114 kPa	314.88
420 K, 20115 kPa	324.88
420 K, 22617 kPa	348.3
420 K, 25118 kPa	369.82
420 K, 27620 kPa	389.82
420 K, 30122 kPa	408.54
420 K, 35125 kPa	442.89
420 K, 40129 kPa	474.01
420 K, 45133 kPa	502.59
420 K, 50136 kPa	529.12
420 K, 55140 kPa	553.96
420 K, 60143 kPa	577.36
420 K, 70150 kPa	620.64
420 K, 80158 kPa	660.12
420 K, 90165 kPa	696.59
